Structure (SMILES)	melting point
Cc1cc2c(cc1C(=O)N1CCc3cccnc31)[nH]c(=O)c1cnc(C3CCOCC3)n12	341 °C (dec.)
CCCc1nnc2c(=O)[nH]c3cc(C(=O)N4CCc5c(Cl)cccc5C4)c(C)cc3n12	198 to 202 °C
Cc1cc2c(cc1C(=O)N1CCc3ccc(Cl)cc31)[nH]c(=O)c1cnc(C3CCOCC3)n12.Cl	188 to 189 °C
COc1cc2c(cn1)N(C(=O)c1cc3[nH]c(=O)c4cnc(C5CCOCC5)n4c3cc1C)CC2	232 to 233 °C
Cc1cc2c(cc1C(=O)N1CCc3c(Cl)cccc31)[nH]c(=O)c1cnc(C3CCOCC3)n12.Cl	272 to 273 °C
Cc1cc2c(cc1C(=O)N1CCc3cc(F)c(Cl)cc31)[nH]c(=O)c1cnc(C3CCOCC3)n12.Cl	315 °C (dec.)
Cc1cc2c(cc1C(=O)N1Cc3ccc(Cl)cc3C1)[nH]c(=O)c1cnc(C3CCCOC3)n12.Cl (stereo not drawn)	200 to 203 °C
Cc1ccc2c(c1)CCN2C(=O)c1cc2[nH]c(=O)c3cnc(C4CCOC4)n3c2cc1C.Cl (stereo not drawn)	186 to 188 °C (dec.)
Cc1cnc2c(c1)CCN2C(=O)c1cc2[nH]c(=O)c3cnc(C4CCOCC4)n3c2cc1C	313 to 315 °C
Cc1cc2c(cc1C(=O)N1Cc3cccc(C)c3C1)[nH]c(=O)c1nnc(C3CCOC3)n12.Cl (stereo not drawn)	311 °C (dec.)
Cc1cc2c(cc1C(=O)N1CCc3onc(-c4ccc(F)cc4)c3C1)[nH]c(=O)c1nnc(C3CCOC3)n12 (stereo not drawn)	282 to 284 °C (dec.)
COc1cc2c(cc1C(=O)N1CCc3cc(Cl)ccc31)[nH]c(=O)c1cnc(C3CCOCC3)n12.Cl	328 to 330 °C (dec.)
Cc1cc2c(cc1C(=O)N1Cc3ccccc3C1)[nH]c(=O)c1nnc(C3(C)CCOCC3)n12	232 °C (dec.)
Cl.O=C(c1cc2[nH]c(=O)c3cnc(C4CCOCC4)n3c2cc1Cl)N1CCc2cc(Cl)ccc21	352 °C (dec.)
COc1cc2c(cn1)N(C(=O)c1cc3[nH]c(=O)c4nnc(C5CCCC5)n4c3cc1C)CC2	263 to 265 °C
Cc1cc2c(cc1C(=O)N1CCc3cc(Cl)ccc31)[nH]c(=O)c1nnc(C3CCC(F)(F)CC3)n12	230 to 233 °C
Cc1cc2c(cc1C(=O)N1CCc3cc(F)ccc31)[nH]c(=O)c1nnc(C3CCCOC3)n12.Cl (stereo not drawn)	235 to 237 °C
Cc1cc2c(cc1C(=O)N1Cc3ccccc3C1)[nH]c(=O)c1nnc(C3CCCOC3)n12.Cl (stereo not drawn)	303 °C (dec.)
Cc1cc2c(cc1C(=O)N1CCc3cc(F)ccc31)[nH]c(=O)c1c(C)nc(C3CCOCC3)n12	177 to 180 °C
Cc1cc2c(cc1C(=O)N1CCc3cccnc31)[nH]c(=O)c1c(C)nc(C3CCOCC3)n12	192 °C (dec.)
COCc1cc2c(cc1C(=O)N1CCc3cc(F)ccc31)[nH]c(=O)c1cnc(C3CCOCC3)n12.Cl	301 to 304 °C (dec.)
Cc1cc2c(cc1C(=O)N1CCc3cc(C4CC4)cnc31)[nH]c(=O)c1nnc(C3CCOCC3)n12	210 to 212 °C
Cc1cc2c(cc1C(=O)N1CCc3cc(C4CC4)cnc31)[nH]c(=O)c1nnc(C3CCCOC3)n12 (stereo not drawn)	204 to 206 °C

Structure (SMILES)	melting point
Cc1cc2c(cc1C(=O)N1CCc3cc(Cl)ccc31)[nH]c(=O)c1nnc(C3CCC3)n12.Cl	225 to 228 °C
Cc1cc2c(cc1C(=O)N1CCc3cc(F)ccc31)[nH]c(=O)c1nnc(C3CCC3)n12.Cl	223 to 226 °C
Cc1cc2c(cc1C(=O)N1CCc3cc(Cl)ccc31)[nH]c(=O)c1nnc(C3(C)CCOCC3)n12.Cl	229 to 232 °C
COc1cc2c(cc1C(=O)N1CCc3cc(C)cnc31)[nH]c(=O)c1cnc(C3CCOCC3)n12	288 °C (dec.)
Cc1cc2c(cc1C(=O)N1CCc3cc(Cl)ccc31)[nH]c(=O)c1cnc([C@H]3CC[C@H](O)CC3)n12.Cl	207 to 209 °C
Cc1cc2c(cc1C(=O)N1CCc3cc(F)ccc31)[nH]c(=O)c1cnc([C@H]3CC[C@H](O)CC3)n12.Cl	199 to 201 °C
Cc1cc2c(cc1C(=O)N1CCc3cc(Br)cnc31)[nH]c(=O)c1cnc([C@H]3CC[C@@H](O)CC3)n12.Cl	305 to 307 °C
Cc1c(C(=O)N2CCc3cccnc32)ccc2c1[nH]c(=O)c1cnc(C3CCOCC3)n12.Cl	320 °C (dec.)
Cc1cc2c(cc1C(=O)N1CCc3cc(Cl)ccc31)[nH]c(=O)c1nnc(CC3CC3)n12	303 to 305 °C
CC(C)c1ncc2c(=O)[nH]c3cc(C(=O)N4CCOC(c5ccccc5)C4)ccc3n12.Cl (stereo not drawn)	268 to 271 °C
CC(C)c1ncc2c(=O)[nH]c3cc(C(=O)N4CCc5c(Cl)cccc5C4)ccc3n12.Cl	328 to 329 °C
COc1cc2c(cc1C(=O)N1CCOC(c3ccccc3)C1)[nH]c(=O)c1cnc(C3CCCCC3)n12.Cl (stereo not drawn)	182 to 186 °C
Cc1cc2c(cc1C(=O)N1CCc3cc(F)ccc31)[nH]c(=O)c1nnc(C3CCOCC3)n12.Cl	221 to 223 °C
Cc1cc2c(cc1C(=O)N1CCc3ccc([N+](=O)[O-])cc31)[nH]c(=O)c1cnc(C3CCOCC3)n12.Cl	301 to 304 °C
Cc1cc2c(cc1C(=O)N1Cc3ccccc3C1)[nH]c(=O)c1nnc(CC3CCS(=O)(=O)CC3)n12.Cl	253 °C (dec.)
Cc1cc2c(cc1C(=O)N1Cc3ccccc3C1)[nH]c(=O)c1nnc(CC3CC[S+]([O-])CC3)n12 (stereo not drawn)	248 °C (dec.)
Cc1cc2c(cc1C(=O)N1Cc3ccccc3C1)[nH]c(=O)c1nnc(C3CCCC3)n12	318 °C (dec.)
Cc1cc2c(cc1C(=O)N1CCc3c(Cl)cccc3C1)[nH]c(=O)c1nnc(C3CCOCC3)n12	269 °C (dec.)
Cc1cc2c(cc1C(=O)N1Cc3cccc(Cl)c3C1)[nH]c(=O)c1nnc(C3CCOCC3)n12	329 °C (dec.)
Cc1cc2c(cc1C(=O)N1CCOC(c3ccccc3)C1)[nH]c(=O)c1cnc(C3CCCC3)n12 (stereo not drawn)	304 to 305 °C
Cc1cc2c(cc1C(=O)N1CCN(C)C(c3ccccc3)C1)[nH]c(=O)c1cnc(C3CCCC3)n12 (stereo not drawn)	246 to 248 °C
Cc1cc2c(cc1C(=O)N1Cc3ccccc3C1)[nH]c(=O)c1nnc([C@@H]3CCC[C@@H]3O)n12 (racemic)	316 °C (dec.)
Cc1cc2c(cc1C(=O)N1CCc3cc(Cl)ccc31)[nH]c(=O)c1cnc([C@@H]3CCC[C@@H]3O)n12 (racemic) [Example 343]	238 to 240 °C

Second part, the compound after the results:

melting point	Structure (SMILES)
303 °C (dec.)	O=C(c1ccc2c(c1)[nH]c(=O)c1nnc(C3CCOCC3)n12)N1Cc2ccccc2C1
216 to 219 °C	Cc1cc2c(cc1C(=O)N1CCc3ccccc31)[nH]c(=O)c1cnc(C3CCOCC3)n12.Cl
203 to 205 °C	Cc1ccc2c(c1)CN(C(=O)c1cc3[nH]c(=O)c4cnc(C5CCOCC5)n4c3cc1C)C2
199 to 201 °C (dec.)	Cc1cc2c(cc1C(=O)N1Cc3c(F)ccc(F)c3C1)[nH]c(=O)c1cnc(C3CCOCC3)n12.Cl
328 °C (dec.)	Cc1cc2c(cc1C(=O)N1Cc3cccc(C#N)c3C1)[nH]c(=O)c1cnc(C3CCOCC3)n12.Cl
209 °C (dec.)	COc1cccc2c1CN(C(=O)c1cc3[nH]c(=O)c4cnc(C5CCOCC5)n4c3cc1C)C2.Cl
286 °C (dec.)	Cc1cc2c(cc1C(=O)N1Cc3cccc(C4CC4)c3C1)[nH]c(=O)c1cnc(C3CCOCC3)n12.Cl
313 °C (dec.)	Cc1cc2c(cc1C(=O)N1Cc3cccc(I)c3C1)[nH]c(=O)c1cnc(C3CCOCC3)n12.Cl
185 to 187 °C	Cc1cc2c(cc1C(=O)N1Cc3ccc(Cl)cc3C1)[nH]c(=O)c1cnc(C3CCOC3)n12.Cl (stereo not drawn)
270 to 272 °C (dec.)	Cc1cc2c(cc1C(=O)N1Cc3cccc(C)c3C1)[nH]c(=O)c1cnc(C3CCOC3)n12.Cl (stereo not drawn)
189 to 192 °C	Cc1cc2c(cc1C(=O)N1CCN(C)C(c3ccccc3)C1)[nH]c(=O)c1cnc(C3CCOCC3)n12 (stereo not drawn)
185 to 189 °C (dec.)	Cl.O=C(c1cc2[nH]c(=O)c3cnc(C4CCOCC4)n3c2cc1C1CC1)N1Cc2ccccc2C1
199 to 203 °C (dec.)	Cl.O=C(c1cc2[nH]c(=O)c3cnc(C4CCOCC4)n3c2cc1C1CC1)N1Cc2ccc(Cl)cc2C1
210 to 213 °C (dec.)	COc1cc2c(cc1C(=O)N1Cc3ccc(Cl)cc3C1)[nH]c(=O)c1cnc(C3CCOCC3)n12.Cl
241 °C (dec.)	COc1cc2c(cn1)N(C(=O)c1cc3[nH]c(=O)c4cnc(C5CCOCC5)n4c3cc1C1CC1)CC2
201 to 203 °C	Cc1cc2c(cc1C(=O)N1Cc3cccc(F)c3C1)[nH]c(=O)c1cnc(C3CCOCC3)n12.Cl
332 °C (dec.)	Cl.O=C(c1cc2[nH]c(=O)c3cnc(C4CCOCC4)n3c2cc1Cl)N1Cc2ccccc2C1
223 to 224 °C	Cc1cc2c(cc1C(=O)N1Cc3ccccc3C1)[nH]c(=O)c1nnc(C3CCOC3)n12.Cl (stereo not drawn)
236 to 239 °C	Cc1cc2c(cc1C(=O)N1CCc3ncccc3C1)[nH]c(=O)c1cnc(C3CCOCC3)n12
350 °C (dec.)	O=C(c1cc2[nH]c(=O)c3nnc(C4CCOCC4)n3c2cc1Br)N1Cc2ccccc2C1
261 to 264 °C (dec.)	COCc1cc2c(cc1C(=O)N1Cc3ccccc3C1)[nH]c(=O)c1cnc(C3CCOCC3)n12.Cl
183 to 186 °C	Cc1c(C(=O)N2Cc3ccccc3C2)ccc2c1[nH]c(=O)c1cnc(C3CCOCC3)n12.Cl
277 °C (dec.)	COCc1cc2c(cc1C(=O)N1Cc3cccc(F)c3C1)[nH]c(=O)c1cnc(C3CCOCC3)n12.Cl
270 °C (dec.)	Cc1cc2c(cc1C(=O)N1Cc3ccccc3C1)[nH]c(=O)c1cnc(C3CCOC3)n12.Cl (stereo not drawn)
304 °C (dec.)	Cc1cc2c(cc1C(=O)N1Cc3ccccc3C1)[nH]c(=O)c1cnc(C3CCCC3)n12
301 to 302 °C (dec.)	Cc1cc2c(cc1C(=O)N1Cc3ccccc3C1)[nH]c(=O)c1cnc([C@@H]3CCC[C@@H]3O)n12 (racemic)
